Experiments:
endogenous IL-18 = assay: effect of serine proteases on endogenous IL-18 levels in saliva samples (ELISA); type: biochemical, human; conditions: 37° C.; for effect of serine protease on IL-18 levels: saliva, 1 h, chymase 2, cathepsin G 2, elastase 0.5, proteinase 3 2, tryptase 1 μg/ml
Procedure: Next, activities of the recombinant chymase and COMPOUND NO. 3 were examined with endogenous IL-18. One ml of saliva samples were collected from six subjects and incubated with vehicle (DMSO/PBS), chymase (80 nM), and chymase+COMPOUND No. 3 (1 μM) at 37° C. for 3 hr.
To determine the dose effects of the recombinant chymase on IL-18 levels, 1-300 nM of the recombinant chymase were incubated with saliva samples at 37° C. for 1 hr.
(§1) Next, the effects of various serine proteases and inhibitors on IL-18 levels were examined. The saliva samples were incubated with vehicle (DMSO/PBS), chymase (2 μg/ml), COMPOUND No. 3 (1 μM), chymase (2 μg/ml)+COMPOUND No. 3 (1 μM), chymostatin (3 μg/ml), chymase (2 μg/ml)+chymostatin (3 μg/ml), cathepsin G (2 μg/ml), cathepsin G (2 μg/ml)+COMPOUND No. 3 (1 μM), elastase (0.5 μg/ml), elastase (0.5 μg/ml)+COMPOUND No. 3 (1 μM), proteinase 3 (2 μg/ml), proteinase 3 (2 μg/ml)+COMPOUND No. 3 (1 μM), tryptase (1 μg/ml), or tryptase (1 μg/ml)+COMPOUND 3 (1 μM) at 37° C. for 1 h. […] In contrast, cathepsin G and elastase had no effect on IL-18 levels. […] However, the reduction of IL-18 by these two enzymes was not reversed by COMPOUND No. 3.

[1] = target: T1, recombinant human chymase (Homo sapiens, UniProt P23946); assay: reversal of chymase-induced decrease of IL-18 levels in human saliva (ELISA); type: biochemical; conditions: 37° C.; for reversal of chymase-induced reduction of IL-18 levels: chymase 2 μg/ml, COMPOUND No. 3 1 μM or chymostatin 3 μg/ml, 1 h; for dose-dependent reversal of chymase-induced decrease of IL-18 levels: 0-10,000 nM compound, human saliva; for dose-dependent reversal of chymase-induced decrease of IL-18 levels / IC50: 80 nM chymase, 1 hr; for IC50: n=3, ELISA, read-out: IC50 for reversal of chymase-induced IL-18 reduction
T1 construct: made in house
T1 sequence (P23946 22-247): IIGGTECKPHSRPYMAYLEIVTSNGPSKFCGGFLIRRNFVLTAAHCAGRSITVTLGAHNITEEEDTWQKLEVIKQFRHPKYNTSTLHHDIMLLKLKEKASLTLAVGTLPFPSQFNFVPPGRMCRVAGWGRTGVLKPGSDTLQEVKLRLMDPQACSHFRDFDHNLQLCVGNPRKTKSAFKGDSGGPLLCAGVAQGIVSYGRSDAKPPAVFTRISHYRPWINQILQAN
Procedure: (§2) The digestion was measured using the enzyme-linked immunosorbent assay (ELISA) kit (R&D Systems). […] As the ELISA detection provided quantitative measurement and high-throughput screening capacity, it was used for the following experiments.
Next, activities of the recombinant chymase and COMPOUND NO. 3 were examined with endogenous IL-18.
The dose effects of the chymase inhibitors on IL-18 levels were also examined. […] The IL-18 levels were measured using ELISA as described above.
Next, the effects of various serine proteases and inhibitors on IL-18 levels were examined.

tryptase = assay: reversal of tryptase-induced reduction of IL-18 in saliva (ELISA); type: biochemical; conditions: tryptase 1 μg/ml + compound 1 μM; 37° C., 1 h
Procedure: as §1

[2] = system: endogenous chymase activity and other proteases activity in saliva samples; assay: IL-18 levels in saliva samples incubated with protease inhibitors, no added chymase (ELISA); type: biochemical, human; conditions: 37° C., 1 hour
Procedure: To determine the effects of additional protease inhibitors on the endogenous IL-18 levels, the pan protease inhibitors and/or COMPOUND No. 3 were incubated with saliva samples at 37° C. for 1 hour. […] Ten μM of COMPOUND NO.

proteinase 3 = target: T2, proteinase 3 (Homo sapiens, UniProt P24158); assay: reversal of proteinase 3-induced reduction of IL-18 in saliva (ELISA); type: biochemical; conditions: proteinase 3 2 μg/ml + compound 1 μM; 37° C., 1 h
T2 sequence (P24158 28-248): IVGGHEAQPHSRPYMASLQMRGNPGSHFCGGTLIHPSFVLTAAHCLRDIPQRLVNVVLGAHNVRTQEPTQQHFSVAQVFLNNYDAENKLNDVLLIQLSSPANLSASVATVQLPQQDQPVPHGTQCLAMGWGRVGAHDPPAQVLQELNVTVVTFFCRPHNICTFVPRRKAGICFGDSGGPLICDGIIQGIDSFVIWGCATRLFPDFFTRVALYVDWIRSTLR
Procedure: as §1

other serine proteases = conditions: cited from earlier work
IL-18 levels in saliva = assay: IL-18 levels in human saliva after 14 days of dosing; type: in vivo; conditions: human subjects
Procedure: To examine the dose effects of COMPOUND NO. 1 on the IL-18 levels, subjects were treated with 0, 100, 600 mg of COMPOUND NO. 1 for 14 days and the saliva samples were collected. IL-18 levels in the samples were measured by ELISA as described above. […] 1 at 600 mg as compared to the placebo group (FIG. 8). The IL-18 levels were similar in the placebo group and the subjects treated with COMPOUND NO. 1 at 100 mg.

[3] = system: recombinant mature human IL-18; assay: cleavage of recombinant mature human IL-18 by chymase (Western blot, ELISA); type: biochemical; conditions: 37° C.
Procedure: A recombinant human chymase was generated according to Kervinen et al. (2008). A hundred ng of the recombinant mature human IL-18 (rIL-18, R&D Systems, 614 McKinley Place NE, Minneapolis, Minn. 55413) was incubated with the recombinant chymase (w/w 1:25) in PBS at 37° C. for various time points. The digestion products were separated on a 4-12% gradient gel. Western blot analysis was done with a specific monoclonal antibody against human IL-18. […] The exact cleavage sites were not clear. Without being bound to any theory, the mature IL-18 may be cleaved by the recombinant human chymase into the ˜16 kD fragment which may be further degraded into the ˜12 kD fragment. […] In addition, the chymase-induced cleavage of rIL-18 was both time (FIG. 1A) and dose dependent (FIG. 1B).
as §2

For elastase, the “effect of serine protease on IL-18 levels” value (shortened to “effect of serine protease”) (endogenous IL-18) was “no effect”.

In the case of CC(C)C[C@H](NC(=O)[C@@H](NC(=O)N[C@@H](Cc1ccccc1)C(=O)O)[C@@H]1CCN=C(N)N1)C(=O)N[C@H](C=O)Cc1ccccc1 [chymostatin, reference compound], the “reversal of chymase-induced reduction of IL-18 levels” value [1] is reported as “reversed the reduction”.

With CC(C)OC(=O)OCOP(=O)(O)C(C(=O)N/C=C/c1cc(Cl)cc(Cl)c1)c1csc2ccc(Cl)cc12 (stereo not shown) [COMPOUND NO. 2] the “dose-dependent reversal of chymase-induced decrease of IL-18 levels” value [1] was “dose-dependently reversed” and the IC50 [1] was 1460 ± 563 nM.

For O=C(N/C=C/c1cc(Cl)cc(Cl)c1)C(c1csc2ccc(Cl)cc12)P(=O)(O)O (stereo not shown) [COMPOUND NO. 3], the “reversal of tryptase-induced reduction of IL-18” value (tryptase) was “not reversed”, the “reversal of the decrease in IL-18 levels in incubated saliva” value ([2]; 1 or 10 μM) was “reversed some of the decrease” and the “increase of IL-18 levels at 10 μM compared with 1 μM” value [2] was “almost two fold”. The “reversal of proteinase 3-induced reduction of IL-18” value (proteinase 3) was “not reversed”, the “dose-dependent reversal of chymase-induced decrease of IL-18 levels” value [1] was “dose-dependently reversed” and the IC50 [1] was 3600 ± 928 nM. The “reversal of chymase-induced decrease of IL-18 levels, subjects 1-3 and 6” value ([1]; chymase 80 nM + compound 1 μM, 3 hr, subjects 1-3 and 6) was “reversed completely”, the “reversal of chymase-induced decrease of IL-18 levels, subjects 4 and 5” value ([1]; chymase 80 nM + compound 1 μM, 3 hr, subjects 4 and 5) was “reverted to a large degree” and the “reversal of chymase-induced reduction of IL-18 levels” value [1] was “reversed this reduction”. For the same molecule, the “reversal of chymase-induced decrease of IL-18 levels” value ([1]; saliva of six subjects, chymase 80 nM + compound 1 μM, 3 hr) was “reversed or prevented”.

For CP(=O)(O)C(C(=O)N/C=C/c1ccc(F)c(F)c1)c1csc2ccc(Cl)cc12 (stereo not shown) [COMPOUND NO. 1], the “cross activity with other serine proteases” value (other serine proteases) is given as “little or no cross activity”, the “IL-18 levels in saliva compared to the placebo group, 100 mg” value (IL-18 levels in saliva; 100 mg for 14 days) is given as “similar” and the “IL-18 levels in saliva compared to the placebo group, 600 mg” value (IL-18 levels in saliva; 600 mg for 14 days, p<0.03) is given as “significant increase”.

B1: cathepsin G: serine protease (protein, UniProt P08311 21-244, looked up)
Cathepsin G: IIGGRESRPHSRPYMAYLQIQSPAGQSRCGGFLVREDFVLTAAHCWGSNINVTLGAHNIQRRENTQQHITARRAIRHPQYNQRTIQNDIMLLQLSRRVRRNRNVNPVALPRAQEGLRPGTLCTVAGWGRVSMRRGTDTLREVQLRVQRDRQCLRIFGSYDPRRQICVGDRRERKAAFKGDSGGPLLCNNVAHGIVSYGKSSGVPPEVFTRVSSFLPWIRTTMRS
In the case of B1, the “effect of serine protease” value (endogenous IL-18) is reported as “no effect”.

B2: recombinant chymase: recombinant human chymase generated according to Kervinen et al. (2008) (protein, UniProt P23946 22-247, looked up)
Chymase: T1 sequence (P23946 22-247)
With B2 the EC50 (endogenous IL-18; 1-300 nM chymase in saliva samples, 1 hr, n=3) was 60.4 ± 15.2 nM, the “effect on immunoreactivity or levels of endogenous IL-18” value (endogenous IL-18; chymase 80 nM, saliva of six subjects, 3 hr) was “decrease” and the “effect of serine protease” value (endogenous IL-18) was “reduced”. For the same molecule, the “rIL-18 immunoreactivity or levels in the presence of chymase, PBS” value ([3]; 80 nM chymase, 4 mg/ml rIL-18, PBS, 1.5 h, without chymase ~4000) was roughly 1300 ng/mL, the “rIL-18 immunoreactivity or levels in the presence of chymase, saliva” value ([3]; 80 nM chymase, 4 mg/ml rIL-18, saliva, 1.5 h, without chymase ~3,000) was ~1,000 ng/ml and the “cleavage of mature human IL-18 (Western blot)” value ([3]; 100 ng rIL-18, chymase w/w 1:25, PBS, fragments ~16 and ~12 kD) was “able to cleave”.

B3: Proteinase 3: serine protease (protein, UniProt P24158 28-248, looked up)
Myeloblastin: T2 sequence (P24158 28-248)
In the case of B3, the “effect of serine protease” value (endogenous IL-18) is reported as “reduced IL-18 levels significantly”.

— patent US20100003712A1, “BIOMARKER FOR ASSESSING RESPONSE TO CHYMASE TREATMENT” (priority 2008, published 2010)
